The text below walks through data of patent US9255094B2, “Pyrido[4,3-B]indoles and methods of use” (Medivation Technologies, Inc., priority 2009, dated 2016).

The term inhibition denotes the drop in the measured response relative to a control, in per cent.

The target of assay [1] is T1, human recombinant adrenergic α2C receptor (Homo sapiens, UniProt P18825).
T1 construct: expressed in transfected cells; host or cells: insect Sf9 cells
T1 sequence (P18825 1-462): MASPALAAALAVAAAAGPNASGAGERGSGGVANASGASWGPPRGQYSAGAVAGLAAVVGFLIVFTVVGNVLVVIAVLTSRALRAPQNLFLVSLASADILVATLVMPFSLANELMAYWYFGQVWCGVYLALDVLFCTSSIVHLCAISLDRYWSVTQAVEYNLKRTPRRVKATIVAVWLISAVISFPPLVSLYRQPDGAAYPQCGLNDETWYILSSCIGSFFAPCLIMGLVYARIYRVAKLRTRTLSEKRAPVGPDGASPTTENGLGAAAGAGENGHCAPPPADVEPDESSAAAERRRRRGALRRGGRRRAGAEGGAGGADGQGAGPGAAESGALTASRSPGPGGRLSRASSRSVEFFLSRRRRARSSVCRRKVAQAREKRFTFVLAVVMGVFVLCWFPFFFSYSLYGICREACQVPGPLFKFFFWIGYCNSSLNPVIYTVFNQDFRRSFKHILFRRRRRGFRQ
As to the kind of experiment: Adrenergic α2C radioligand binding assay ([3H]MK-912). The settings on record: compound at 0.1 μM; 1 nM [3H]MK-912; insect Sf9 cells; read-out: Percent Inhibition of ligand binding, Adrenergic (0.1 μM) a2C. The method, then: To evaluate in radioligand binding assays the activity of compounds of the invention, human recombinant adrenergic α2C receptor expressed in insect Sf9 cells (Uhlen S et al. J. Pharmacol. Exp. Ther. 271:1558, 1994) in a modified Tris-HCl buffer (50 mM Tris-HCl, pH 7.4, 12.5 mM MgCl2, 2 mM EDTA) is used. Compounds of the invention are incubated with 1 nM [^3H]MK-912 for 60 min at 25° C. Non-specific binding is estimated in the presence of 10 μM WB-4101. Receptor proteins are filtered and washed, the filters are then counted to determine [^3H]MK-912 specifically bound. Compounds are screened at 1 μM or lower, using 1% DMSO as vehicle. Compounds of the invention are tested in this biochemical assay and percent inhibition of specific binding is determined.

For assay [2], the target named is T2, human recombinant serotonin (5-Hydroxytryptamine) 5-HT2C receptor (Homo sapiens, UniProt P28335).
T2 construct: expressed in transfected cells; host or cells: Chinese hamster ovary (CHO-K1) cells
T2 sequence (P28335 33-458): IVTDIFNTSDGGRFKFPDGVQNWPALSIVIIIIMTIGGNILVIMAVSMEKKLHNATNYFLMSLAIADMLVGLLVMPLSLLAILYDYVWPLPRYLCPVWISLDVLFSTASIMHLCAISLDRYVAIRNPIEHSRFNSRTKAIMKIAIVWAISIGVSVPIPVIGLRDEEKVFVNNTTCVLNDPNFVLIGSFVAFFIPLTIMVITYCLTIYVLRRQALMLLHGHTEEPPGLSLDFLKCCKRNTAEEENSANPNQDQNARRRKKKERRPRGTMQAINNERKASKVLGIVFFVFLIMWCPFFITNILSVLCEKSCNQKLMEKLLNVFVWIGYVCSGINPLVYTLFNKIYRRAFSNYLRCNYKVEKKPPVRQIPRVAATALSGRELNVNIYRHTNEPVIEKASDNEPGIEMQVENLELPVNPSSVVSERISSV
As to the kind of experiment: Serotonin 5-HT2C radioligand binding assay ([3H]Mesulergine). The settings on record: compound at 0.1 μM; 1 nM [3H]Mesulergine; CHO-K1 cells; read-out: Percent Inhibition of ligand binding, Serotonin (0.1 μM) 5-HT2C. The method, then: Compounds of the invention were incubated with 1 nM [^3H]Mesulergine for 60 min at 25° C. Non-specific binding was estimated in the presence of 1 μM Mianserin. Receptor proteins were filtered and washed, the filters were then counted to determine [^3H]Mesulergine specifically bound. Compounds were screened at 1 μM or lower, using 1% DMSO as vehicle. Biochemical assay results are presented as the percent inhibition of specific binding in Table 4.

Assay [3] deals with T3, rat adrenergic α1A receptor (Rattus norvegicus, UniProt P43140).
T3 construct: from tissue; host or cells: Wistar Rat submaxillary glands
T3 sequence (P43140 1-466): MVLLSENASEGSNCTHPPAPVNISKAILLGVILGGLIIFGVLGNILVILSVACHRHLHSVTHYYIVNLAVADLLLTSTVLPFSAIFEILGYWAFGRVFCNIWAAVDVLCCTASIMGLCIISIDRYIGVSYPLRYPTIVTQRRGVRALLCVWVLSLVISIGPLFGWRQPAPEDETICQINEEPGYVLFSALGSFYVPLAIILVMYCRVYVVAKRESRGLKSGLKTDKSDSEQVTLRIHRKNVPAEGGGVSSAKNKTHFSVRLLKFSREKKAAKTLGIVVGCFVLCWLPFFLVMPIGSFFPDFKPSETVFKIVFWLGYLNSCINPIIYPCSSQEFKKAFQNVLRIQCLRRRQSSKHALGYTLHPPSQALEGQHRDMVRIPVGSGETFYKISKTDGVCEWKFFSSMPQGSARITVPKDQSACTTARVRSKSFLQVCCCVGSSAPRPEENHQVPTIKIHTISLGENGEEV
As to the kind of experiment: Adrenergic α1A radioligand binding assay ([3H]Prozosin). As to conditions: compound at 0.1 μM; 0.25 nM [3H]Prozosin; Wistar Rat submaxillary glands; read-out: Percent Inhibition of ligand binding, Adrenergic (0.1 μM) a1A. The method, then:
To evaluate in radioligand binding assays the activity of compounds of the invention, rat adrenergic α1A receptor obtained from Wistar Rat submaxillary glands (Michel, A. D. et al., Br. J. Pharmacol. 98:883, 1989) in a modified Tris-HCl buffer (50 mM Tris-HCl buffer, pH 7.4, 0.5 mM EDTA) is used. Compounds of the invention are incubated with 0.25 nM [^3H]Prozosin for 60 min at 25° C. Non-specific binding is estimated in the presence of 10 μM phentolamine. Receptor proteins are filtered and washed, the filters are then counted to determine [^3H]Prozosin specifically bound. Compounds of the invention are screened at 1 μM or lower, using 1% DMSO as vehicle. Compounds of the invention are tested in this biochemical assay and percent inhibition of specific binding is determined.

The target of assay [4] is T4, human recombinant serotonin (5-Hydroxytryptamine) 5-HT2A receptor (Homo sapiens, UniProt P28223).
T4 construct: expressed in transfected cells; host or cells: Chinese hamster ovary (CHO-K1) cells
T4 sequence (P28223 whole entry): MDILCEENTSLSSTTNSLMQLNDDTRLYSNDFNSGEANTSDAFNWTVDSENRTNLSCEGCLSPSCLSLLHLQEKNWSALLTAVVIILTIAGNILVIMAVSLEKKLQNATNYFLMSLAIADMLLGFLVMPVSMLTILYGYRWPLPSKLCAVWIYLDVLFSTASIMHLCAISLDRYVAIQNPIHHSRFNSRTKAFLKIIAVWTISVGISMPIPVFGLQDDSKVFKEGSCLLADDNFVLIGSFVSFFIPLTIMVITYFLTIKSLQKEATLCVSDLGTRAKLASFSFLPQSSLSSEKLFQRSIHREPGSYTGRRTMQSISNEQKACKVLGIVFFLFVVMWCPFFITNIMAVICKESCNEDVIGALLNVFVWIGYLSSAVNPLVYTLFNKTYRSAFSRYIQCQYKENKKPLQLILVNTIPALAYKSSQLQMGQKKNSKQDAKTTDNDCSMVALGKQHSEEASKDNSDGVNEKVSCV
As to the kind of experiment: Serotonin 5-HT2A radioligand binding assay ([3H]Ketanserin). As to conditions: compound at 0.1 μM; 0.5 nM [3H]Ketanserin; CHO-K1 cells; read-out: Percent Inhibition of ligand binding, Serotonin (0.1 μM) 5-HT2A. The method, then:
Compounds of the invention were incubated with 0.5 nM [^3H]Ketanserin for 60 min at 25° C. Non-specific binding was estimated in the presence of 1 μM Mianserin. Receptor proteins were filtered and washed, the filters were then counted to determine [^3H]Ketanserin specifically bound. Compounds were screened at 1 μM or lower, using 1% DMSO as vehicle. Biochemical assay results are presented as the percent inhibition of specific binding in Table 4.

On to `Cc1ccc2c(c1)c1c(n2CCc2ccc(C)nc2)CCN(CC(F)(F)F)C1` [Compound 1-65, 8-methyl-5-(2-(6-methylpyridin-3-yl)ethyl)-2-(2,2,2-trifluoroethyl)-2,3,4,5-tetrahydro-1H-pyrido[4,3-b]indole], for which the inhibition at 0.1 µM in assay [1] was -1%; in assay [2], 6%; in assay [3] it was -10%; in assay [4], -10%.

As to `CC[C@@](O)(Cn1c2c(c3cc(C)ccc31)CN(C)CC2)c1ccc(F)cc1` [Compound 1-66, (S)-1-(2,8-dimethyl-3,4-dihydro-1H-pyrido[4,3-b]indol-5(2H)-yl)-2-(4-fluorophenyl)butan-2-ol], the inhibition at 0.1 µM in assay [1] was 18%; in assay [2] it was 84%; in assay [3] it was -1%; in assay [4], 77%.

For `CCCC[C@@](O)(Cn1c2c(c3cc(Cl)ccc31)CN(C)CC2)c1ccc(F)cc1` [Compound 1-67, (S)-1-(8-chloro-2-methyl-3,4-dihydro-1H-pyrido[4,3-b]indol-5(2H)-yl)-2-(4-fluorophenyl)hexan-2-ol], the inhibition at 0.1 µM came to 13% in assay [1], 51% in assay [2], 2% in assay [3] and 39% in assay [4].

On to `Cc1ccc2c(c1)c1c(n2CC(C)c2ccncc2)CCN(C)C1` (stereo not shown) [Compound 1-46, 2,8-dimethyl-5-(2-(pyridin-4-yl)propyl)-2,3,4,5-tetrahydro-1H-pyrido[4,3-b]indole], for which the inhibition at 0.1 µM was 22% in assay [1], 83% in assay [2], 12% in assay [3] and 71% in assay [4].

As to `CC[C@](O)(Cn1c2c(c3cc(C)ccc31)CN(C)CC2)c1ccncc1` [Compound 1-63, (R)-1-(2,8-Dimethyl-3,4-dihydro-1H-pyrido[4,3-b]indol-5(2H)-yl)-2-(pyridine-4-yl)butan-2-ol], the inhibition at 0.1 µM is 4% in assay [1], 25% in assay [2], 8% in assay [3] and 21% in assay [4].

As to `CC[C@@](O)(Cn1c2c(c3cc(C)ccc31)CN(C)CC2)c1ccncc1` [Compound 1-62, (S)-1-(2,8-Dimethyl-3,4-dihydro-1H-pyrido[4,3-b]indol-5(2H)-yl)-2-(pyridine-4-yl)butan-2-ol], the inhibition at 0.1 µM is -5% in assay [1], 33% in assay [2], 10% in assay [3] and 43% in assay [4].

Turning to `CC[C@](O)(Cn1c2c(c3cc(C)ccc31)CN(C)CC2)c1ccc(F)cc1` [Compound 1-60, (R)-1-(2,8-Dimethyl-3,4-dihydro-1H-pyrido[4,3-b]indol-5(2H)-yl)-2-(4-fluorophenyl)butan-2-ol], the inhibition at 0.1 µM in assay [1] is 9%; in assay [2], 67%; in assay [3], -8%; in assay [4], 67%.
